Experiments:
[1] = Selectivity index, ratio of CC50 for cytotoxicity against human MT4 cells assessed as reduction in cell viability to EC50 for antiviral activity against NNRTI-resistant HIV-1 harboring Y188L mutant infected in human MT4 cells; format: toxicity, cell-based; conditions: read-out: Ratio CC50/EC50
[2] = Fold resistance, ratio of EC50 for antiviral activity against NNRTI-resistant HIV-1 harboring K103N mutant infected in human MT4 cells assessed as virus-induced cytopathicity to EC50 for antiviral activity against HIV-1 IIIB infected in human MT4 cells assessed as reduction in virus induced cytopathic effect; format: functional
[3] = tested on: Human immunodeficiency virus 1; assay: Antiviral activity against NNRTI-resistant HIV-1 harboring F227L/V106A double mutant infected in human MT4 cells assessed as virus-induced cytopathicity incubated for 5 days by MTT assay; format: functional, organism-based; conditions: Human immunodeficiency virus 1, MT4, 120 h
[4] = Selectivity index, ratio of CC50 for cytotoxicity against human MT4 cells assessed as reduction in cell viability to EC50 for antiviral activity against NNRTI-resistant HIV-1 harboring E138K mutant infected in human MT4 cells; format: toxicity, cell-based; conditions: read-out: Ratio CC50/EC50
[5] = Fold resistance, ratio of EC50 for antiviral activity against NNRTI-resistant HIV-1 harboring F227L/V106A double mutant infected in human MT4 cells assessed as virus-induced cytopathicity to EC50 for antiviral activity against HIV-1 RES056 infected in human MT4 cells assessed as reduction in virus induced cytopathic effect; format: functional
[6] = Fold resistance, ratio of EC50 for antiviral activity against NNRTI-resistant HIV-1 harboring L100I mutant infected in human MT4 cells assessed as virus-induced cytopathicity to EC50 for antiviral activity against HIV-1 IIIB infected in human MT4 cells assessed as reduction in virus induced cytopathic effect; format: functional
[7] = Selectivity index, ratio of CC50 for cytotoxicity against human MT4 cells assessed as reduction in cell viability to EC50 for antiviral activity against NNRTI-resistant HIV-1 harboring Y181C mutant infected in human MT4 cells; format: toxicity, cell-based; conditions: read-out: Ratio CC50/EC50
[8] = tested on: Human immunodeficiency virus 1; assay: Antiviral activity against NNRTI-resistant HIV-1 harboring K103N mutant infected in human MT4 cells assessed as virus-induced cytopathicity incubated for 5 days by MTT assay; format: functional, organism-based; conditions: Human immunodeficiency virus 1, MT4, 120 h
[9] = Cytotoxicity against human MT4 cells assessed as cell growth inhibition incubated for 5 days by MTT assay; format: toxicity, cell-based; conditions: time 5 day
[10] = Selectivity index, ratio of CC50 for cytotoxicity against human MT4 cells assessed as reduction in cell viability to EC50 for antiviral activity against HIV-1 IIIB infected in human MT4 cells assessed as reduction in virus induced cytopathic effect; format: toxicity, cell-based; conditions: read-out: Ratio CC50/EC50
[11] = tested on: Human immunodeficiency virus 1; assay: Antiviral activity against HIV-1 RES056 infected in human MT4 cells assessed as reduction in virus induced cytopathic effect incubated for 5 days by MTT assay; format: functional, organism-based; conditions: Human immunodeficiency virus 1, RES056, MT4, 120 h
[12] = Fold resistance, ratio of EC50 for antiviral activity against NNRTI-resistant HIV-1 harboring E138K mutant infected in human MT4 cells assessed as virus-induced cytopathicity to EC50 for antiviral activity against HIV-1 IIIB infected in human MT4 cells assessed as reduction in virus induced cytopathic effect; format: functional
[13] = tested on: Human immunodeficiency virus 1; assay: Antiviral activity against NNRTI-resistant HIV-1 harboring Y188L mutant infected in human MT4 cells assessed as virus-induced cytopathicity incubated for 5 days by MTT assay; format: functional, organism-based; conditions: Human immunodeficiency virus 1, MT4, 120 h
[14] = Fold resistance, ratio of EC50 for antiviral activity against NNRTI-resistant HIV-1 harboring Y181C mutant infected in human MT4 cells assessed as virus-induced cytopathicity to EC50 for antiviral activity against HIV-1 IIIB infected in human MT4 cells assessed as reduction in virus induced cytopathic effect; format: functional
[15] = tested on: Human immunodeficiency virus 1; assay: Antiviral activity against NNRTI-resistant HIV-1 harboring L100I mutant infected in human MT4 cells assessed as virus-induced cytopathicity incubated for 5 days by MTT assay; format: functional, organism-based; conditions: Human immunodeficiency virus 1, MT4, 120 h
[16] = Fold resistance, ratio of EC50 for antiviral activity against NNRTI-resistant HIV-1 harboring F227L/V106A double mutant infected in human MT4 cells assessed as virus-induced cytopathicity to EC50 for antiviral activity against HIV-1 IIIB infected in human MT4 cells assessed as reduction in virus induced cytopathic effect; format: functional
[17] = Fold resistance, ratio of EC50 for antiviral activity against NNRTI-resistant HIV-1 harboring Y188L mutant infected in human MT4 cells assessed as virus-induced cytopathicity to EC50 for antiviral activity against HIV-1 IIIB infected in human MT4 cells assessed as reduction in virus induced cytopathic effect; format: functional
[18] = tested on: Human immunodeficiency virus 1; assay: Antiviral activity against NNRTI-resistant HIV-1 harboring Y181C mutant infected in human MT4 cells assessed as virus-induced cytopathicity incubated for 5 days by MTT assay; format: functional, organism-based; conditions: Human immunodeficiency virus 1, MT4, 120 h
[19] = tested on: Human immunodeficiency virus 1; assay: Antiviral activity against NNRTI-resistant HIV-1 harboring E138K mutant infected in human MT4 cells assessed as virus-induced cytopathicity incubated for 5 days by MTT assay; format: functional, organism-based; conditions: Human immunodeficiency virus 1, MT4, 120 h
[20] = Selectivity index, ratio of CC50 for cytotoxicity against human MT4 cells assessed as reduction in cell viability to EC50 for antiviral activity against NNRTI-resistant HIV-1 harboring L100I mutant infected in human MT4 cells; format: toxicity, cell-based; conditions: read-out: Ratio CC50/EC50
[21] = tested on: Human immunodeficiency virus 1; assay: Antiviral activity against HIV-1 IIIB infected in human MT4 cells assessed as reduction in virus induced cytopathic effect incubated for 5 days by MTT assay; format: functional, organism-based; conditions: Human immunodeficiency virus 1, IIIB, MT4, 120 h
[22] = molecular target: Human immunodeficiency virus type 1 reverse transcriptase (Human immunodeficiency virus 1, UniProt Q72547); assay: Inhibition of wild type HIV-1 reverse transcriptase assessed as reduction of biotin-dUTP incorporation into […] using ABTS as substrate incubated for 1 hrs by ELISA analysis
[23] = Selectivity index, ratio of CC50 for cytotoxicity against human MT4 cells assessed as reduction in cell viability to EC50 for antiviral activity against NNRTI-resistant HIV-1 harboring F227L/V106A double mutant infected in human MT4 cells; format: toxicity, cell-based; conditions: read-out: Ratio CC50/EC50
[24] = Selectivity index, ratio of CC50 for cytotoxicity against human MT4 cells assessed as reduction in cell viability to EC50 for antiviral activity against NNRTI-resistant HIV-1 harboring K103N mutant infected in human MT4 cells; format: toxicity, cell-based; conditions: read-out: Ratio CC50/EC50
[25] = Selectivity index, ratio of CC50 for cytotoxicity against human MT4 cells assessed as reduction in cell viability to EC50 for antiviral activity against HIV-1 RES056 infected in human MT4 cells assessed as reduction in virus induced cytopathic effect; format: toxicity, cell-based; conditions: read-out: Ratio CC50/EC50

## Cc1cc(C#N)cc(C)c1Oc1nc(NC2CCN(Cc3ccc(S(N)(=O)=O)cc3)CC2)ncc1C(N)=O
[1]
  selectivity ratio: 847
[2]
  Ratio EC50: 1.3
[3]
  EC50: 0.439 µM
[4]
  selectivity ratio: 680
[5]
  Ratio EC50: 132.9
[6]
  Ratio EC50: 4.5
[7]
  selectivity ratio: 671
[8]
  EC50: 0.062 µM
[9]
  CC50 at 120 h: 198 µM
[10]
  selectivity ratio: 4300
[11]
  EC50: 6.12 µM
[12]
  Ratio EC50: 6.3
[13]
  EC50: 0.234 µM
[14]
  Ratio EC50: 6.4
[15]
  EC50: 0.209 µM
[16]
  Ratio EC50: 9.5
[17]
  Ratio EC50: 5.1
[18]
  EC50: 0.295 µM
[19]
  EC50: 0.291 µM
[20]
  selectivity ratio: 946
[21]
  EC50: 0.046 µM
[22]
  IC50: 0.163 µM
[23]
  selectivity ratio: 451
[24]
  selectivity ratio: 3180
[25]
  selectivity ratio: 32

## Cc1cc(C#N)cc(C)c1Oc1nc(NC2CCN(c3ccc(NS(=O)(=O)C4CC4)cc3)CC2)ncc1C(N)=O
[1]
  selectivity ratio: 6000
[2]
  Ratio EC50: 1.2
[3]
  EC50: 0.034 µM
[4]
  selectivity ratio: 283
[5]
  Ratio EC50: 5.5
[6]
  Ratio EC50: 8.5
[7]
  selectivity ratio: 4570
[8]
  EC50: 0.009 µM
[9]
  CC50 at 120 h: 208 µM
[10]
  selectivity ratio: 27200
[11]
  EC50: 0.042 µM
[12]
  Ratio EC50: 96.2
[13]
  EC50: 0.035 µM
[14]
  Ratio EC50: 6
[15]
  EC50: 0.065 µM
[16]
  Ratio EC50: 4.5
[17]
  Ratio EC50: 4.5
[18]
  EC50: 0.045 µM
[19]
  EC50: 0.734 µM
[20]
  selectivity ratio: 3190
[21]
  EC50: 0.008 µM
[22]
  IC50: 0.038 µM
[23]
  selectivity ratio: 6070
[24]
  selectivity ratio: 23400
[25]
  selectivity ratio: 4920

## Cc1cc(C#N)cc(C)c1Oc1nc(NC2CCN(c3ccc(N)cc3)CC2)ncc1C(N)=O
[1]
  selectivity ratio: 718
[2]
  Ratio EC50: 1.1
[3]
  EC50: 1.08 µM
[4]
  selectivity ratio: 881
[5]
  Ratio EC50: 96.4
[6]
  Ratio EC50: 6.6
[7]
  selectivity ratio: 726
[8]
  EC50: 0.045 µM
[9]
  CC50 at 120 h: 183 µM
[10]
  selectivity ratio: 4420
[11]
  EC50: 4 µM
[12]
  Ratio EC50: 5
[13]
  EC50: 0.255 µM
[14]
  Ratio EC50: 6.1
[15]
  EC50: 0.275 µM
[16]
  Ratio EC50: 26.1
[17]
  Ratio EC50: 6.2
[18]
  EC50: 0.252 µM
[19]
  EC50: 0.208 µM
[20]
  selectivity ratio: 668
[21]
  EC50: 0.042 µM
[22]
  IC50: 0.242 µM
[23]
  selectivity ratio: 169
[24]
  selectivity ratio: 4120
[25]
  selectivity ratio: 46

## Cc1cc(C#N)cc(C)c1Oc1nc(NC2CCN(c3ccc(NS(=O)(=O)N(C)C)cc3)CC2)ncc1C(N)=O
[1]
  selectivity ratio: 6350
[2]
  Ratio EC50: 1.7
[3]
  EC50: 0.034 µM
[4]
  selectivity ratio: 8010
[5]
  Ratio EC50: 2359.1
[6]
  Ratio EC50: 21.1
[7]
  selectivity ratio: 3910
[8]
  EC50: 0.011 µM
[9]
  CC50 at 120 h: 209 µM
[10]
  selectivity ratio: 31700
[11]
  EC50: 15.6 µM
[12]
  Ratio EC50: 3.9
[13]
  EC50: 0.033 µM
[14]
  Ratio EC50: 8.1
[15]
  EC50: 0.139 µM
[16]
  Ratio EC50: 5.1
[17]
  Ratio EC50: 5
[18]
  EC50: 0.054 µM
[19]
  EC50: 0.026 µM
[20]
  selectivity ratio: 1500
[21]
  EC50: 0.007 µM
[22]
  IC50: 0.052 µM
[23]
  selectivity ratio: 6160
[24]
  selectivity ratio: 18700
[25]
  selectivity ratio: 13

## Cc1cc(C#N)cc(C)c1Oc1nc(NC2CCN(c3ccc(NS(C)(=O)=O)cc3)CC2)ncc1C(N)=O
[1]
  selectivity ratio: > 9940
[2]
  Ratio EC50: 8
[3]
  EC50: 0.781 µM
[4]
  selectivity ratio: > 1040
[5]
  Ratio EC50: 1716.7
[6]
  Ratio EC50: 12.7
[7]
  selectivity ratio: > 901
[8]
  EC50: 0.154 µM
[9]
  CC50 at 120 h: > 233 µM
[10]
  selectivity ratio: > 12100
[11]
  EC50: 33.2 µM
[12]
  Ratio EC50: 11.6
[13]
  EC50: 0.024 µM
[14]
  Ratio EC50: 13.4
[15]
  EC50: 0.247 µM
[16]
  Ratio EC50: 40.3
[17]
  Ratio EC50: 1.2
[18]
  EC50: 0.259 µM
[19]
  EC50: 0.226 µM
[20]
  selectivity ratio: > 946
[21]
  EC50: 0.019 µM
[22]
  IC50: 0.2 µM
[23]
  selectivity ratio: > 299
[24]
  selectivity ratio: > 1510
[25]
  selectivity ratio: > 7
